Source: patent publication US20110224208A1, “NOVEL INHIBITORS OF FLAVIVIRUS REPLICATION” (KATHOLIEKE UNIVERSITEIT LEUVEN, K.U. LEUVEN R&D, priority 2008, published 2011)
In brackets after ≈: the same amount, converted by molar mass.

Legend:
[1] = tested on: HCV replicon I389luc-ubi-neo/NS3-3'/5.1; experiment: Anti-HCV replicon assay (luciferase activity) in Huh-5-2 cells; type: cell-based, Hepatitis C virus; settings: Hepatitis C virus, Huh-5-2, 72 h, concentration required to inhibit luciferase activity in the replicon system by 50%
Method: (§1) Cells were seeded at a density of 7000 cells per well in 96 well View Plate™ (Packard) in medium containing the same components as described above, except for G418. Cells were allowed to adhere and proliferate for 24 hr. At that time, culture medium was removed and serial dilutions of the test compounds were added in culture medium lacking G418. Interferon alfa 2a (500 IU) was included as a positive control. Plates were further incubated at 37° C. and 5% CO2 for 72 hours. Replication of the HCV replicon in Huh-5 cells results in luciferase activity in the cells. Luciferase activity is measured by adding 50 μl of 1×Glo-lysis buffer (Promega) for 15 minutes followed by 50 ul of the Steady-Glo Luciferase assay reagent (Promega). Luciferase activity is measured with a luminometer and the signal in each individual well is expressed as a percentage of the untreated cultures. […] Instead the density of the culture is measured by means of the MTS method (Promega).

[2] = Proliferation of exponentially growing Huh-5-2 cells (MTS method); settings: human, CC50, concentration required to inhibit the proliferation of exponentially growing Huh-5-2 cells by 50%; Table 2
Method: as §1

**Q.** Which IC50 [1] does the source give for COCCN1C(=O)c2ccccc2C(C(=O)Nc2cccc(OC)c2)C1c1ccsc1 (stereo not drawn) [C11, 2-(2-Methoxyethyl)-N-(3-methoxyphenyl)-1-oxo-3-(thiophen-3-yl)-1,2,3,4-tetrahydroisoquinoline-4-carboxamide] here?
**A.** 1.2 µg/mL (≈ 2.75 µM)

**Q.** What about the CC50 at 72 h [2] of the same molecule?
**A.** 37.9 µg/mL (≈ 86.8 µM)

**Q.** For COCCN1C(=O)c2ccccc2C(C(=O)Nc2cccc(OC)c2)C1c1ccc(F)cc1 (stereo not drawn) [C9, 3-(4-Fluorophenyl)-2-(2-methoxyethyl)-N-(3-methoxyphenyl)-1-oxo-1,2,3,4-tetrahydroisoquinoline-4-carboxamide], which IC50 [1] is on record?
**A.** 13.4 µg/mL (≈ 29.8 µM)

**Q.** And the CC50 at 72 h [2]?
**A.** 50.7 µg/mL (≈ 113 µM)

**Q.** What does the source list for COCCN1C(=O)c2ccccc2C(C(=O)Nc2ccc(N3CCCCC3)cc2)C1c1cccs1 (stereo not drawn) [C107, 2-(2-methoxyethyl)-1-oxo-N-(4-(piperidin-1-yl)phenyl)-3-(thiophen-2-yl)-1,2,3,4-tetrahydroisoquinoline-4-carboxamide]?
**A.** IC50 [1]: 0.12 µg/mL (≈ 0.245 µM); CC50 at 72 h [2]: 23.5 µg/mL (≈ 47.9 µM)

**Q.** With CNC(=O)c1ccc(NC(=O)C2c3ccccc3C(=O)N(CCOC)C2c2cccs2)cc1 (stereo not drawn) [C141, 2-(2-methoxyethyl)-N-(4-(methylcarbamoyl)phenyl)-1-oxo-3-(thiophen-2-yl)-1,2,3,4-tetrahydroisoquinoline-4-carboxamide] as the molecule, how does the IC50 [1] read?
**A.** 0.63 µg/mL (≈ 1.36 µM)

**Q.** And the CC50 at 72 h [2]?
**A.** 73.8 µg/mL (≈ 159 µM)

**Q.** What does the source list for CCOc1cccc(NC(=O)C2c3ccccc3C(=O)N(CCOC)C2c2cccs2)c1 (stereo not drawn) [C59, N-(3-ethoxyphenyl)-2-(2-methoxyethyl)-1-oxo-3-(thiophen-2-yl)-1,2,3,4-tetrahydroisoquinoline-4-carboxamide]?
**A.** IC50 [1]: 0.3 µg/mL (≈ 0.666 µM); CC50 at 72 h [2]: 88.1 µg/mL (≈ 196 µM)

**Q.** What does the source list for COCCN1C(=O)c2ccccc2C(C(=O)Nc2cccc(OC)c2)C1c1cc(C)nn1C (stereo not drawn) [C100, 3-(1,3-dimethyl-1H-pyrazol-5-yl)-2-(2-methoxyethyl)-N-(3-methoxyphenyl)-1-oxo-1,2,3,4-tetrahydroisoquinoline-4-carboxamide]?
**A.** IC50 [1]: 56.8 µg/mL (≈ 127 µM); CC50 at 72 h [2]: 86.7 µg/mL (≈ 193 µM)

**Q.** Which IC50 [1] does the source give for COCCN1C(=O)c2ccccc2C(C(=O)Nc2ccc(C(F)(F)F)cc2)C1c1cccs1 (stereo not drawn) [C19, 2-(2-Methoxyethyl)-1-oxo-3-(thiophen-2-yl)-N-(4-(trifluoromethyl)phenyl)-1,2,3,4-tetrahydroisoquinoline-4-carboxamide] here?
**A.** 5.2 µg/mL (≈ 11 µM)

**Q.** What about the CC50 at 72 h [2] of the same molecule?
**A.** 12.1 µg/mL (≈ 25.5 µM)

**Q.** For COCCN1C(=O)c2ccccc2C(C(=O)Nc2ccc(CO)cc2)C1c1cccs1 (stereo not drawn) [C181, N-(4-(hydroxymethyl)phenyl)-2-(2-methoxyethyl)-1-oxo-3-(thiophen-2-yl)-1,2,3,4-tetrahydroisoquinoline-4-carboxamide], which IC50 [1] is on record?
**A.** 0.25 µg/mL (≈ 0.573 µM)

**Q.** And the CC50 at 72 h [2]?
**A.** 79.9 µg/mL (≈ 183 µM)

**Q.** Which results are given for COCCN1C(=O)c2ccccc2C(C(=O)Nc2cccc(-n3cccn3)c2)C1c1cccs1 (stereo not drawn) [C172, N-(3-(1H-pyrazol-1-yl)phenyl)-2-(2-methoxyethyl)-1-oxo-3-(thiophen-2-yl)-1,2,3,4-tetrahydroisoquinoline-4-carboxamide]?
**A.** IC50 [1]: 0.09 µg/mL (≈ 0.19 µM); CC50 at 72 h [2]: 14.5 µg/mL (≈ 30.6 µM)

**Q.** Which results are given for COCCN1C(=O)c2c(ccc(OC)c2F)C(C(=O)Nc2ccc(-n3cccc3)cc2)C1c1cccs1 (stereo not drawn) [C150, N-(4-(1H-pyrrol-1-yl)phenyl)-8-fluoro-7-methoxy-2-(2-methoxyethyl)-1-oxo-3-(thiophen-2-yl)-1,2,3,4-tetrahydroisoquinoline-4-carboxamide]?
**A.** IC50 [1]: 0.08 µg/mL (≈ 0.154 µM); CC50 at 72 h [2]: > 125 µg/mL

**Q.** With COCCN1C(=O)c2ccccc2C(C(=O)Nc2cccc(OC)c2)C1C1CCCC1 (stereo not drawn) [C118, 3-cyclopentyl-2-(2-methoxyethyl)-N-(3-methoxyphenyl)-1-oxo-1,2,3,4-tetrahydroisoquinoline-4-carboxamide] as the molecule, how does the IC50 [1] read?
**A.** 8.32 µg/mL (≈ 19.7 µM)

**Q.** What about the CC50 at 72 h [2] of the same molecule?
**A.** 98.2 µg/mL (≈ 233 µM)

**Q.** With COCCN1C(=O)c2ccccc2C(C(=O)Nc2cc[nH]n2)C1c1cccs1 (stereo not drawn) [C184, 2-(2-methoxyethyl)-1-oxo-N-(1H-pyrazol-3-yl)-3-(thiophen-2-yl)-1,2,3,4-tetrahydroisoquinoline-4-carboxamide] as the molecule, how does the IC50 [1] read?
**A.** 55 µg/mL (≈ 139 µM)

**Q.** With COCCN1C(=O)c2ccccc2C(C(=O)Nc2cccc(OC)c2)C1C#N (stereo not drawn) [C143, 3-cyano-2-(2-methoxyethyl)-N-(3-methoxyphenyl)-1-oxo-1,2,3,4-tetrahydroisoquinoline-4-carboxamide] as the molecule, how does the IC50 [1] read?
**A.** 24.3 µg/mL (≈ 64 µM)

**Q.** Which IC50 [1] does the source give for COCCN1C(=O)c2ccccc2C(C(=O)Nc2ccc3c(c2)CCN3C)C1c1cccs1 (stereo not drawn) [C176, 2-(2-methoxyethyl)-N-(1-methylindolin-5-yl)-1-oxo-3-(thiophen-2-yl)-1,2,3,4-tetrahydroisoquinoline-4-carboxamide] here?
**A.** 0.48 µg/mL (≈ 1.04 µM)

**Q.** For COCCN1C(=O)c2ccc(F)cc2C(C(=O)Nc2cccc(OC)c2)C1c1cccs1 (stereo not drawn) [C77, 6-fluoro-2-(2-methoxyethyl)-N-(3-methoxyphenyl)-1-oxo-3-(thiophen-2-yl)-1,2,3,4-tetrahydroisoquinoline-4-carboxamide], which IC50 [1] is on record?
**A.** 11.2 µg/mL (≈ 24.7 µM)

**Q.** For COCCN1C(=O)c2ccccc2C(C(=O)Nc2ccncn2)C1c1cccs1 (stereo not drawn) [C162, 2-(2-methoxyethyl)-1-oxo-N-(pyrimidin-4-yl)-3-(thiophen-2-yl)-1,2,3,4-tetrahydroisoquinoline-4-carboxamide], which IC50 [1] is on record?
**A.** 3.56 µg/mL (≈ 8.72 µM)

**Q.** For COCCN1C(=O)c2ccccc2C(C(=O)NCCOc2ccccc2)C1c1cccs1 (stereo not drawn) [C34, 2-(2-Methoxyethyl)-1-oxo-N-(2-phenoxyethyl)-3-(thiophen-2-yl)-1,2,3,4-tetrahydroisoquinoline-4-carboxamide], which IC50 [1] is on record?
**A.** 16.5 µg/mL (≈ 36.7 µM)

**Q.** For COCCN1C(=O)c2ccccc2C(C(=O)Nc2cccc(OC)c2)C1c1c(F)cccc1F (stereo not drawn) [C10, 3-(2,6-Difluorophenyl)-2-(2-methoxyethyl)-N-(3-methoxyphenyl)-1-oxo-1,2,3,4-tetrahydroisoquinoline-4-carboxamide], which IC50 [1] is on record?
**A.** 32.1 µg/mL (≈ 68.9 µM)

**Q.** With COCCN1C(=O)c2ccccc2C(C(=O)Nc2cccc(-n3cccc3)c2)C1c1cccs1 (stereo not drawn) [C115, N-(3-(1H-pyrrol-1-yl)phenyl)-2-(2-methoxyethyl)-1-oxo-3-(thiophen-2-yl)-1,2,3,4-tetrahydroisoquinoline-4-carboxamide] as the molecule, how does the IC50 [1] read?
**A.** 0.29 µg/mL (≈ 0.615 µM)

**Q.** For COCCN1C(=O)c2cc(C(F)(F)F)ccc2C(C(=O)Nc2cccc(OC)c2)C1c1cccs1 (stereo not drawn) [C92, 2-(2-methoxyethyl)-N-(3-methoxyphenyl)-1-oxo-3-(thiophen-2-yl)-7-(trifluoromethyl)-1,2,3,4-tetrahydroisoquinoline-4-carboxamide], which IC50 [1] is on record?
**A.** 7.04 µg/mL (≈ 14 µM)

**Q.** Which IC50 [1] does the source give for COCCN1C(=O)c2ccccc2C(C(=O)Nc2ccc(C(=O)OC)c(OC)c2)C1c1cccs1 (stereo not drawn) [C114, methyl 2-methoxy-4-(2-(2-methoxyethyl)-1-oxo-3-(thiophen-2-yl)-1,2,3,4-tetrahydroisoquinoline-4-carboxamido)benzoate] here?
**A.** 0.47 µg/mL (≈ 0.95 µM)

**Q.** With COCCN1C(=O)c2ccccc2C(C(=O)Nc2cccc(OC(F)(F)F)c2)C1c1cccs1 (stereo not drawn) [C112, 2-(2-methoxyethyl)-1-oxo-3-(thiophen-2-yl)-N-(3-(trifluoromethoxy)phenyl)-1,2,3,4-tetrahydroisoquinoline-4-carboxamide] as the molecule, how does the IC50 [1] read?
**A.** 0.31 µg/mL (≈ 0.632 µM)

**Q.** With COCCN1C(=O)c2ccccc2C(C(=O)Nc2cccc(OC)c2)C1c1ccccc1 (stereo not drawn) [C28, 2-(2-Methoxyethyl)-N-(3-methoxyphenyl)-1-oxo-3-phenyl-1,2,3,4-tetrahydroisoquinoline-4-carboxamide] as the molecule, how does the IC50 [1] read?
**A.** 38.8 µg/mL (≈ 90 µM)

**Q.** With COCCN1C(=O)c2ccccc2C(C(=O)Nc2cc(C)nn2C)C1c1cccs1 (stereo not drawn) [C109, N-(1,3-dimethyl-1H-pyrazol-5-yl)-2-(2-methoxyethyl)-1-oxo-3-(thiophen-2-yl)-1,2,3,4-tetrahydroisoquinoline-4-carboxamide] as the molecule, how does the IC50 [1] read?
**A.** 43.4 µg/mL (≈ 102 µM)

**Q.** With COCCN1C(=O)c2ccccc2C(C(=O)Nc2nc(C)co2)C1c1cccs1 (stereo not drawn) [C154, 2-(2-methoxyethyl)-N-(4-methyloxazol-2-yl)-1-oxo-3-(thiophen-2-yl)-1,2,3,4-tetrahydroisoquinoline-4-carboxamide] as the molecule, how does the IC50 [1] read?
**A.** 3.68 µg/mL (≈ 8.94 µM)

**Q.** For COCCN1C(=O)c2ccc(C)cc2C(C(=O)Nc2cccc(OC)c2)C1c1cccs1 (stereo not drawn) [C40, 2-(2-Methoxyethyl)-N-(3-methoxyphenyl)-6-methyl-1-oxo-3-(thiophen-2-yl)-1,2,3,4-tetrahydroisoquinoline-4-carboxamide], which IC50 [1] is on record?
**A.** 7.76 µg/mL (≈ 17.2 µM)

**Q.** For COCCN1C(=O)c2ccccc2C(C(=O)Nc2ccc3[nH]ncc3c2)C1c1cccs1 (stereo not drawn) [C132, N-(1H-indazol-5-yl)-2-(2-methoxyethyl)-1-oxo-3-(thiophen-2-yl)-1,2,3,4-tetrahydroisoquinoline-4-carboxamide], which IC50 [1] is on record?
**A.** 1 µg/mL (≈ 2.24 µM)

**Q.** For COCCN1C(=O)c2ccccc2C(C(=O)Nc2ccc(-n3cccc3)c(C#N)c2)C1c1cccs1 (stereo not drawn) [C222, N-(3-cyano-4-(1H-pyrrol-1-yl)phenyl)-2-(2-methoxyethyl)-1-oxo-3-(thiophen-2-yl)-1,2,3,4-tetrahydroisoquinoline-4-carboxamide], which IC50 [1] is on record?
**A.** 0.21 µg/mL (≈ 0.423 µM)

**Q.** With COCCN1C(=O)c2ccccc2C(C(=O)Nc2cccc(OC)c2)C1c1cc(C)no1 (stereo not drawn) [C104, 2-(2-methoxyethyl)-N-(3-methoxyphenyl)-3-(3-methylisoxazol-5-yl)-1-oxo-1,2,3,4-tetrahydroisoquinoline-4-carboxamide] as the molecule, how does the IC50 [1] read?
**A.** 10.1 µg/mL (≈ 23.1 µM)

**Q.** Which IC50 [1] does the source give for COCCN1C(=O)c2cc(N)ccc2C(C(=O)Nc2cccc(OC)c2)C1c1cccs1 (stereo not drawn) [C147, 7-amino-2-(2-methoxyethyl)-N-(3-methoxyphenyl)-1-oxo-3-(thiophen-2-yl)-1,2,3,4-tetrahydroisoquinoline-4-carboxamide] here?
**A.** 0.14 µg/mL (≈ 0.31 µM)

**Q.** With COc1cccc(NC(=O)C2c3ccccc3C(=O)N(CCSC)C2c2cccs2)c1 (stereo not drawn) [C63, N-(3-methoxyphenyl)-2-(2-(methylthio)ethyl)-1-oxo-3-(thiophen-2-yl)-1,2,3,4-tetrahydroisoquinoline-4-carboxamide] as the molecule, how does the IC50 [1] read?
**A.** 3.21 µg/mL (≈ 7.09 µM)
